# Experimental data from patent US6750211B2, “Diimino compounds for use as modulators of cell regulation” (Emory University, priority 1999, dated 2004).
# System: J774A.1 cells
# Assay: Suppression of the sphingosine "burst" on change to new medium
# Format: cell-based, murine
# Method: J774A.1 cells (No. TIB 67, a murine macrophage-like transformed cell line) were obtained from the American Type Culture Collection (Rockville, Md.) and grown in DMEM and 10% FBS and sodium bicarbonate (3.7 g/l) in a spinner flask at 37° C. and an atmosphere of 5% CO2. Cells were passaged every two to three days by a 1:4 dilution with fresh medium to a density of approximately 2.5×10^5 cells/ml. Cells were used between passages 3 and 24.
# Unless indicated differently, suspended cells were removed from the spinner flask, collected by gentle centrifugation (in a table top centrifuge), resuspended in new medium, added to 60 mm tissue culture dishes at 5 to 7.5×10^5 cells per 2 ml of medium. Under these conditions, the cells adhere to the dish rather than grow in suspension. The cells were incubated at 37° C., 5% CO2, for three days before beginning by removing the conditioned medium and adding fresh medium to initiate the “burst”.
# After incubation of the cells, the medium was removed, 0.5 ml of ice-cold methanol added, and the cells scraped from the dishes with a rubber spatula. The plates were scraped again with 0.4 ml of deionized water, followed by 0.4 ml of methanol. Cells and washes were pooled in 13×100 mm test tubes, 200 to 300 pmol of C20-sphinganine added as an internal standard, and the long-chain bases extracted- and analyzed by HPLC (as described by Merrill, A. H., Jr., et al., (1988) Anal. Biochem. 171, 373-381) with C20-sphinganine as an internal standard.
SMILES,"IC50 (Mus musculus, J774.A1, titration with purified fraction III added with DMEM, concentration approximated from TNBS amine estimate, FIG. 9, read-out: apparent concentration for 50% suppression of the sphingosine burst)",fold more concentrated than conditioned medium (volume to volume comparison of amount needed to suppress the burst) (compared with conditioned medium),"volume giving 50% suppression of the sphingosine burst (purified fraction III (amine concentration about 200 mM) added with DMEM, FIG. 9)","share of the suppression of the sphingosine burst accounted for by the ammonia concentration of conditioned medium (at most time points, calculated from FIGS. 6A and B, FIG. 7)",suppression of the sphingosine burst (in words) (sphingosine measured after adding medium to J774 cells)
"N=C1NC(=N)C(CCCCN)NC1CCCCN (single isomer, unassigned) [fraction III, 2,6-bis-(ω-aminobutyl)-3,5-diimino-piperazine]",1000 to 3000 µM,greater than 200 fold,30 µL,,
"N [NH4^+, reference compound]",,,,greater than 50%,shown to suppress the sphingosine burst
